Measurements: patent publication US7135462B2, “Hepatitis C virus inhibitors” (priority 2003, dated 2006)
Where two headings read alike, the source gives them in different places.

What was measured:
[1] = molecular target: T1, HCV NS3/4A protease complex (BMS strain) (UniProt P27958, C1454S/C1711G, species not given); assay: Recombinant HCV NS3/4A protease complex FRET peptide assay; type: biochemical, Hepatitis C virus (HCV), genotype 1a; conditions: NS3/4A BMS strain, activity range class
T1 construct: for H77 and J4L6S; fused on or other part: Three-lysine solubilising tail at the C-terminus of NS4A
From the text: Recombinant HCV NS3/4A Protease Complex FRET Peptide Assay
Serum from an HCV-infected patient was obtained from Dr. T. Wright, San Francisco Hospital. An engineered full-length cDNA (compliment deoxyribonucleic acid) template of the HCV genome (BMS strain) was constructed from DNA fragments obtained by reverse transcription-PCR (RT-PCR) of serum RNA (ribonucleic acid) and using primers selected on the basis of homology between other genotype 1a strains.
The H77 and J4L6S strains were used for production of recombinant NS3/4A protease complexes. […] Briefly, a three-lysine solubilizing tail was added at the 3′-end of the NS4A coding region. […] Briefly, the NS3/4A protease complex expression was induced with 0.5 millimolar (mM) Isopropyl β-D-1-thiogalactopyranoside (IPTG) for 22 hours (h) at 20° C. […] The cells were resuspended in lysis buffer (10 mL/g) consisting of 25 mM N-(2-Hydroxyethyl)piperazine-N′-(2-Ethane Sulfonic acid) (HEPES), pH 7.5, 20% glycerol, 500 mM Sodium Chloride (NaCl), 0.5% Triton X-100, 1 microgram/milliliter (“μg/mL”) lysozyme, 5 mM Magnesium Chloride (MgCl2), 1 μg/ml DnaseI, 5 mM β-Mercaptoethanol (βME), Protease inhibitor—Ethylenediamine Tetraacetic acid (EDTA) free (Roche), homogenized and incubated for 20 minutes (min) at 4° C. The homogenate was sonicated and clarified by ultra-centrifugation at 235000 g for 1 h at 4° C. Imidazole was added to the supernatant to a final concentration of 15 mM and the pH adjusted to 8.0. The crude protein extract was loaded on a Nickel—Nitrilotriacetic acid (Ni-NTA) column pre-equilibrated with buffer B (25 mM HEPES, pH 8.0, 20% glycerol, 500 mM NaCl, 0.5% Triton X-100, 15 mM imidazole, 5 mM βME). The sample was loaded at a flow rate of 1 mL/min. The column was washed with 15 column volumes of buffer C (same as buffer B except with 0.2% Triton X-100). The protein was eluted with 5 column volumes of buffer D (same as buffer C except with 200 mM Imidazole).
NS3/4A protease complex-containing fractions were pooled and loaded on a desalting column Superdex-S200 pre-equilibrated with buffer D (25 mM HEPES, pH 7.5, 20% glycerol, 300 mM NaCl, 0.2% Triton X-100, 10 mM βME). Sample was loaded at a flow rate of 1 mL/min. NS3/4A protease complex-containing fractions were pooled and concentrated to approximately 0.5 mg/ml.
The enzyme was stored at −80° C., thawed on ice and diluted prior to use in assay buffer. […] The sequence of this peptide is loosely based on the NS4A/NS4B natural cleavage site for the HCV NS3 protease except there is an ester linkage rather than an amide bond at the cleavage site. The peptide substrate was incubated with one of the three recombinant NS3/4A protease complexes, in the absence or presence of a compound of the present invention, and the formation of fluorescent reaction product was followed in real time using a Cytofluor Series 4000.
The reagents were as follow: HEPES and Glycerol (Ultrapure) were obtained from GIBCO-BRL. Dimethyl Sulfoxide (DMSO) was obtained from Sigma. β-Mercaptoethanol was obtained from Bio Rad.
Assay buffer: 50 mM HEPES, pH 7.5; 0.15 M NaCl; 0.1% Triton; 15% Glycerol; 10 mM βME. Substrate: 2 μM final concentration (from a 2 mM stock solution in DMSO stored at −20° C.). HCV NS3/4A protease type 1a (1b), 2–3 nM final concentration (from a 5 μM stock solution in 25 mM HEPES, pH 7.5, 20% glycerol, 300 mM NaCl, 0.2% Triton-X100, 10 mM βME).
The assay was performed in a 96-well polystyrene black plate from Falcon.

[2] = test system: HCV replicon in Huh7 cells; assay: microbe, parasite or virus in culture; type: cell-based, strain 1b; conditions: Hepatitis C virus, Huh-7, 96 h; Huh7 cells expressing HCV replicon, 4 days; activity range class
From the text: Generation of HCV Replicon
This system enabled us to evaluate the effects of our HCV Protease compounds on HCV RNA replication. Briefly, using the HCV strain 1b sequence described in the Lohmann paper (Assession number: AJ238799), an HCV cDNA was generated encoding the 5′ internal ribosome entry site (IRES), the neomycin resistance gene, the EMCV (encephalomyocarditis viurs)-IRES and the HCV nonstructural proteins, NS3-NS5B, and 3′ non-translated region (NTR). In vitro transcripts of the cDNA were transfected into the human hepatoma cell line, Huh7. […] Resulting cell lines were characterized for positive and negative strand RNA production and protein production over time.
Huh7 cells, constitutively expressing the HCV replicon, were grown in Dulbecco's Modified Eagle Media (DMEM) containing 10% Fetal calf serum (FCS) and 1 mg/ml G418 (Gibco-BRL). Cells were seeded the night before (1.5×10^4 cells/well) in 96-well tissue-culture sterile plates. Compound and no compound controls were prepared in DMEM containing 4% FCS, 1:100 Penicillin/Streptomysin, 1:100 L-glutamine and 5% DMSO in the dilution plate (0.5% DMSO final concentration in the assay). Compound/DMSO mixes were added to the cells and incubated for 4 days at 37° C. After 4 days, plates were rinsed thoroughly with Phosphate-Buffered Saline (PBS) (3 times 150 μl). The cells were lysed with 25 μl of a lysis assay reagent containing the FRET peptide (RET S1, as described for the in vitro enzyme assay). The lysis assay reagent was made from 5× cell Luciferase cell culture lysis reagent (Promega #E153A) diluted to 1× with distilled water, NaCl added to 150 mM final, the FRET peptide diluted to 10 μM final from a 2 mM stock in 100% DMSO. The plate was then placed into the Cytofluor 4000 instrument which had been set to 340 nm excitation/490 nm emission, automatic mode for 21 cycles and the plate read in a kinetic mode. EC50 determinations were carried out as described for the IC50 determinations. […]
The percentage inhibition was calculated using the formula below: […]
The values were graphed and analyzed using XLFit to obtain the EC50 value.

| SMILES | IC50 ([1]; read-out: IC50) [µM] | EC50 [2] [µM] | IC50 [1] [µM] |
| --- | --- | --- | --- |
| C=C[C@@H]1C[C@]1(NC(=O)[C@@H]1C[C@@H](Oc2nccc3ccccc23)CN1C(=O)[C@@H](NC(=O)Oc1ccc(C)cc1)C(C)(C)C)C(=O)NS(=O)(=O)C1(Cc2ccccc2)CC1 [Cmpd 200] | 1 to 10 |  |  |
| C=C[C@@H]1C[C@]1(NC(=O)[C@@H]1C[C@@H](Oc2nccc3ccccc23)CN1C(=O)[C@@H](NC(=O)Oc1ccccc1)C(C)(C)C)C(=O)NS(=O)(=O)C1(Cc2ccccc2)CC1 [Cmpd 201] | 1 to 10 |  |  |
| C=C[C@@H]1C[C@]1(NC(=O)[C@@H]1C[C@@H](Oc2nccc3ccccc23)CN1C(=O)[C@@H](NC(=O)Oc1ccc(F)cc1)C(C)(C)C)C(=O)NS(=O)(=O)C1(Cc2ccccc2)CC1 [Cmpd 202] | 1 to 10 |  |  |
| C=C[C@@H]1C[C@]1(NC(=O)[C@@H]1C[C@@H](Oc2nccc3ccccc23)CN1C(=O)[C@@H](NC(=O)Oc1ccc(OC)cc1)C(C)(C)C)C(=O)NS(=O)(=O)C1(Cc2ccccc2)CC1 [Cmpd 203] | 1 to 10 |  |  |
| C=C[C@@H]1C[C@]1(NC(=O)[C@@H]1C[C@@H](Oc2nccc3ccccc23)CN1C(=O)[C@@H](NC(=O)OCCOC)C(C)(C)C)C(=O)NS(=O)(=O)C1(Cc2ccccc2)CC1 [Cmpd 204] | 1 to 10 |  |  |
| C=C[C@@H]1C[C@]1(NC(=O)[C@@H]1C[C@@H](Oc2nccc3ccccc23)CN1C(=O)[C@@H](NC(=O)OCC(C)(C)C)C(C)(C)C)C(=O)NS(=O)(=O)C1(Cc2ccccc2)CC1 [Cmpd 205] | 0.1 to 1 | 0.1 to 1 |  |
| C=C[C@@H]1C[C@]1(NC(=O)[C@@H]1C[C@@H](Oc2nccc3ccccc23)CN1C(=O)[C@@H](NC(=O)OCCF)C(C)(C)C)C(=O)NS(=O)(=O)C1(Cc2ccccc2)CC1 [Cmpd 206] | 0.1 to 1 |  |  |
| C=C[C@@H]1C[C@]1(NC(=O)[C@@H]1C[C@@H](Oc2nccc3ccccc23)CN1C(=O)[C@@H](NC(=O)Oc1ccccc1OC)C(C)(C)C)C(=O)NS(=O)(=O)C1(Cc2ccccc2)CC1 [Cmpd 207] | 1 to 10 |  |  |
| C=C[C@@H]1C[C@]1(NC(=O)[C@@H]1C[C@@H](Oc2nccc3ccccc23)CN1C(=O)[C@@H](NC(=O)Oc1cccc(C(F)(F)F)c1)C(C)(C)C)C(=O)NS(=O)(=O)C1(Cc2ccccc2)CC1 [Cmpd 208] | 1 to 10 |  |  |
| C=C[C@@H]1C[C@]1(NC(=O)[C@@H]1C[C@@H](Oc2nccc3ccccc23)CN1C(=O)[C@@H](NC(=O)O[C@@H]1C[C@H](C)CC[C@H]1C(C)C)C(C)(C)C)C(=O)NS(=O)(=O)C1(Cc2ccccc2)CC1 [Cmpd 209] | 10 to 100 | 1 to 10 |  |
| C=C[C@@H]1C[C@]1(NC(=O)[C@@H]1C[C@@H](Oc2nccc3ccccc23)CN1C(=O)[C@@H](NC(=O)CC(C)(C)C)C(C)(C)C)C(=O)NS(=O)(=O)C1(Cc2ccccc2)CC1 [Cmpd 210] | 1 to 10 |  |  |
| C=C[C@@H]1C[C@]1(NC(=O)[C@@H]1C[C@@H](Oc2nccc3ccccc23)CN1C(=O)[C@@H](NC(=O)COC)C(C)(C)C)C(=O)NS(=O)(=O)C1(Cc2ccccc2)CC1 [Cmpd 211] | 1 to 10 |  |  |
| C=C[C@@H]1C[C@]1(NC(=O)[C@@H]1C[C@@H](Oc2nccc3ccccc23)CN1C(=O)[C@@H](NC(=O)CCOC)C(C)(C)C)C(=O)NS(=O)(=O)C1(Cc2ccccc2)CC1 [Cmpd 212] | 1 to 10 |  |  |
| C=C[C@@H]1C[C@]1(NC(=O)[C@@H]1C[C@@H](Oc2nccc3ccccc23)CN1C(=O)[C@@H](NC(=O)[C@@H]1COc2ccccc2O1)C(C)(C)C)C(=O)NS(=O)(=O)C1(Cc2ccccc2)CC1 [Cmpd 213] | 10 to 100 |  |  |
| C=C[C@@H]1C[C@]1(NC(=O)[C@@H]1C[C@@H](Oc2nccc3cc(OC)ccc23)CN1C(=O)[C@@H](NC(=O)NC(C)(C)C)C(C)(C)C)C(=O)NS(=O)(=O)C1(C)CC1 [Cmpd 217] |  | < 0.1 | < 0.1 |
| C=C[C@@H]1C[C@]1(NC(=O)[C@@H]1C[C@@H](Oc2nccc3cc(OC)ccc23)CN1C(=O)[C@@H](NC(=O)NC1CCCC1)C(C)(C)C)C(=O)NS(=O)(=O)C1(C)CC1 [Cmpd 218] | < 0.1 | < 0.1 |  |
| C=C[C@@H]1C[C@]1(NC(=O)[C@@H]1C[C@@H](Oc2nccc3cc(OC)ccc23)CN1C(=O)[C@@H](NC(=O)NC(C)(C)CC)C(C)(C)C)C(=O)NS(=O)(=O)C1(C)CC1 [Cmpd 219] | < 0.1 | < 0.1 |  |
| C=C[C@@H]1C[C@]1(NC(=O)[C@@H]1C[C@@H](Oc2nccc3cc(OC)ccc23)CN1C(=O)[C@@H](NC(=O)N1CCC1)C(C)(C)C)C(=O)NS(=O)(=O)C1(C)CC1 [Cmpd 220] | < 0.1 | 0.1 to 1 |  |
| C=C[C@@H]1C[C@]1(NC(=O)[C@@H]1C[C@@H](Oc2nccc3cc(OC)ccc23)CN1C(=O)[C@@H](NC(=O)OC(C)(C)C)C(C)(C)C)C(=O)NS(=O)(=O)C1(CC)CC1 [Cmpd 300, {1-[2-[1-(1-Ethyl-cyclopropanesulfonylaminocarbonyl)-2-vinyl-cyclopropylcarbamoyl]-4-(6-methoxy-isoquinolin-1-yloxy)-pyrrolidine-1-carbonyl]-2,2-dimethyl-propyl}-carbamic acid tert-butyl ester] | < 0.1 | < 0.1 |  |
| C=C[C@@H]1C[C@]1(NC(=O)[C@@H]1C[C@@H](Oc2nccc3cc(OC)ccc23)CN1C(=O)[C@@H](NC(=O)OC(C)(C)C)C(C)(C)C)C(=O)NS(=O)(=O)C1(C)CC1 [Cmpd 301, (1-{4-(6-Methoxy-isoquinolin-1-yloxy)-2-[1-(1-methyl-cyclopropanesulfonylaminocarbonyl)-2-vinyl-cyclopropylcarbamoyl]-pyrrolidine-1-carbonyl}-2,2-dimethyl-propyl)-carbamic acid tert-butyl ester] | < 0.1 | < 0.1 |  |
| C=C[C@@H]1C[C@]1(NC(=O)[C@@H]1C[C@@H](Oc2nc(-c3ccccc3)nc3ccccc23)CN1C(=O)[C@@H](N)C(C)(C)C)C(=O)NS(=O)(=O)C1(Cc2ccccc2)CC1 [Cmpd 603] | 1 to 10 |  |  |
